# In US6437128B1, “Cribrostatins 3-5” (Arizona Board of Regents, priority 2001, dated 2002):
# Experiments:
# Experiment in all cases: Antimicrobial disk diffusion
# Assay type in all cases: cell-based
# [1] = system: Escherichia coli (ATCC 25922)
# [2] = system: Stenotrophomonas maltophilia (ATCC 13637)
# [3] = system: Bacillus subtilis (Presque Isle 620)
# [4] = system: Cryptococcus neoformans (ATCC 90112)
# [5] = system: Streptococcus pneumoniae (ATCC 6303)
# [6] = system: Enterococcus faecalis (ATCC 29212)
# [7] = system: Staphylococcus aureus (ATCC 29213)
# [8] = system: Micrococcus luteus (Presque Isle 456)
# [9] = system: Enterobacter cloacae (ATCC 13047)
# [10] = system: Penicillin-resistant N. gonorrhoeae (clinical isolate)
# [11] = system: Neisseria gonorrhoeae (ATCC 49226)
# [12] = system: Candida albicans (ATCC 90028)
# [13] = system: Group A Streptococcus (clinical isolate)
# [14] = system: Invasive S. pneumoniae (clinical isolate)
# [15] = system: Penicillin-resistant S. pneumoniae (clinical isolate)
smiles,measurement,setting,value
"CC1=C(N)C(=O)c2c(ccnc2C)C1=O [Cribrostatin 1, cribrostatin 1, reference compound]",Minimum inhibitory concentration,[1],* (No inhibition at 100 μg/disk)
same,Minimum inhibitory concentration,[2],* (No inhibition at 100 μg/disk)
same,Minimum inhibitory concentration,[3],* (No inhibition at 100 μg/disk)
same,Minimum inhibitory concentration,[4],* (No inhibition at 100 μg/disk)
same,Minimum inhibitory concentration,[5],* (No inhibition at 100 μg/disk)
same,Minimum inhibitory concentration,[6],* (No inhibition at 100 μg/disk)
same,Minimum inhibitory concentration,[7],* (No inhibition at 100 μg/disk)
same,Minimum inhibitory concentration,[8],* (No inhibition at 100 μg/disk)
same,Minimum inhibitory concentration,[9],* (No inhibition at 100 μg/disk)
same,Minimum inhibitory concentration,[10],0.39-0.78 μg/disk
same,Minimum inhibitory concentration,[11],0.39-0.78 μg/disk
same,Minimum inhibitory concentration,[12],* (No inhibition at 100 μg/disk)
"CCOC1=C(C)C(=O)c2cc(=O)n(C)cc2C1=O [Cribrostatin 2, cribrostatin 2, reference compound]",Minimum inhibitory concentration,[1],* (No inhibition at 100 μg/disk)
same,Minimum inhibitory concentration,[13],* (No inhibition at 100 μg/disk)
same,Minimum inhibitory concentration,[2],* (No inhibition at 100 μg/disk)
same,Minimum inhibitory concentration,[3],25-50 μg/disk
same,Minimum inhibitory concentration,[4],12.5-25 μg/disk
same,Minimum inhibitory concentration,[5],12.3-25 μg/disk
same,Minimum inhibitory concentration,[14],50-100 μg/disk
same,Minimum inhibitory concentration,[6],* (No inhibition at 100 μg/disk)
same,Minimum inhibitory concentration,[7],12.5-25 μg/disk
same,Minimum inhibitory concentration,[8],50-100 μg/disk
same,Minimum inhibitory concentration,[9],* (No inhibition at 100 μg/disk)
same,Minimum inhibitory concentration,[15],25-50 μg/disk
same,Minimum inhibitory concentration,[10],0.39-0.78 μg/disk
same,Minimum inhibitory concentration,[11],0.39-0.78 μg/disk
same,Minimum inhibitory concentration,[12],3.12-6.25 μg/disk
